Broadly, the IC50 is the concentration that gives 50% inhibition. High values mean weaker potency in that assay, low ones greater potency in that assay.

Counter-ions that a name gives are not always drawn.

Holding throughout (format): cell-based
The subject of one assay is A2780S. In words: Antiproliferative activity in human tumor cell lines: A2780S (ovarian). The conditions noted are these: PROTOCOL 1 and PROTOCOL 2, 48 hours. The protocol: (§1) The assays are identified as follows:
(§2) PROTOCOL 1,2,and 3 are described in greater detail hereinbelow. In general, according to PROTOCOLS 1 and 2, the target ABAE and/or Human Tumor cells are exposed to the compounds of Formula I for 48 hours. PROTOCOL 3 exposes ABAE cells to the compounds for 4 days. A detailed description of the protocols is as follows:
(§3) The antiproliferative activity of the compounds of Formula I of the present invention is evaluated in a panel comprised of human tumor cell lines and an adult bovine aortic endothelial cell line (ABAE). The human tumor cell lines are from
(§4) Cultures are renewed after 20 passages with cells from a fresh stock of batch-frozen early passage cells. Cell lines are routinely checked for mycoplasma contamination (Genprobe). In a laminar flow hood, cells (1-5×10^4) are plated into 96-well microtiter plates in a volume of 0.1 ml/well with a bulk microtiter dispenser (Denley). […] Compounds are added using a Tomtec dispenser which simultaneously dispenses from one 96-well plate, containing the drug dilutions, to the plates containing the cells. After two days of continuous drug exposure, 50% cold trichloroacetic acid (TCA) is added to 10% final concentration to fix the cells, and after 60 minutes at 4° C., the TCA is aspirated and the plates are washed 5 times with deionized water using a microtiter plate washer. […] A 0.4% solution of the dye, sulforhodamine B, in […] is added to the plates, and the plates are washed 5 times with 1% glacial acetic acid using the automatic plate washed. The bound stain is solubilized with 0.1 ml of 10 mM Tris base. The optical densities are read from an automatic spectrophotometric plate reader (Dynatech) directly to a main frame computer (VAX 8600).
(§5) Positive controls, that include standard chemotherapeutic drugs (i.e., Adriamycin, Cisplatin, etc.), are included in every experiment.
(§6) Background optical density measurements (complete media-cells, and complete media+drug-cells) are automatically subtracted from the appropriate control and test wells. Mean values and standard errors are determined from duplicate wells. A measure is also made of the optical density at time when the drugs are added. The number of cells after treatment (P), as % of control, is calculated for every concentration of drug, as follows: [formula] wherein: T is optical density measurement for treated cells after 48 hours;
(§7) C is optical density measurement for untreated cells after 48 hours;
(§8) Co is optical density measurement for cells at the time of drug addition.
(§9) IC50 of growth inhibition is calculated from the sets of P values using the RS-1 data package (BBN Software).
(§10) The antiproliferative activity of the compounds of Formula I is evaluated in a panel comprised of human tumor cell lines and an adult bovine aortic cell line (ABAE) as listed in PROTOCOL 1. This assay is a modification of PROTOCOL 1. The modifications include:
(§11) 1) each concentration for each compound is tested in a single well;
(§12) 2) compounds are tested at 20, 4, 0.8, 0.16 microgram/ml and additionally in some experiments at 100 and 0.32 microgram/ml;
(§13) 3) samples are pipetted into a 96-well plate for each of the cell lines by a Beckman Biomek 1000 SL robot;
(§14) 4) after fixing with TCA each well is washed with 0.35 ml distilled water twice, not five times;
(§15) 5) after staining with sulforhodamine B each well is washed 3 times, not five times;
(§16) 6) the growth inhibition (I) as % of control, is calculated using the RS-1 data package (BBN Software), for every concentration of drug, as follows: [formula] wherein: T is optical density measurement for treated cells after 48 hours;
(§17) 7) IC50 of growth inhibition is determined graphically from dose response curves, as is known in the art.

Another assay concerns A2780/DDP. In words: Antiproliferative activity in human tumor cell lines: A2780/DDP (ovarian). The conditions noted are these: PROTOCOL 1 and PROTOCOL 2, 48 hours. The protocol: as §1, §2, §3, §4, §5, §6, §7, §8, §9, §10, §11, §12, §13, §14, §15, §16, §17
The next assay concerns MIP. In words: Antiproliferative activity in human tumor cell lines: MIP (colon). The conditions noted are these: PROTOCOL 1 and PROTOCOL 2, 48 hours. The method, then:
The antiproliferative activity of the compounds of Formula I in an Adult Bovine Aortic Endothelial (ABAE) cell line and in Human Tumor cell lines is evaluated in three similar assays that measure growth inhibition. The assays are identified as follows:
as §2, §3
All cell lines are maintained in log phase in RPMI 1640 media, supplemented with 5% fetal calf serum, penicillin/streptomycin and 2 mM L-glutamine. Cultures are renewed after 20 passages with cells from a fresh stock of batch-frozen early passage cells. Cell lines are routinely checked for mycoplasma contamination (Genprobe). In a laminar flow hood, cells (1-5×10^4) are plated into 96-well microtiter plates in a volume of 0.1 ml/well with a bulk microtiter dispenser (Denley). […] At this concentration, dimethylsulfoxide has no effect on cell growth. Compounds are added using a Tomtec dispenser which simultaneously dispenses from one 96-well plate, containing the drug dilutions, to the plates containing the cells. After two days of continuous drug exposure, 50% cold trichloroacetic acid (TCA) is added to 10% final concentration to fix the cells, and after 60 minutes at 4° C., the TCA is aspirated and the plates are washed 5 times with deionized water using a microtiter plate washer. The number of cells on the plate are quantitated using a protein dye-binding assay (Monks et al., 1991). A 0.4% solution of the dye, sulforhodamine B, in glacial acetic acid is added to the plates, and the plates are washed 5 times with 1% glacial acetic acid using the automatic plate washed. The bound stain is solubilized with 0.1 ml of 10 mM Tris base. The optical densities are read from an automatic spectrophotometric plate reader (Dynatech) directly to a main frame computer (VAX 8600).
as §5, §6, §7, §8, §9, §10, §11, §12, §13, §14
5) after staining with sulforhodamine B each well is washed 3 times, not five times; […]

The next assay deals with HTB 161. In words: Antiproliferative activity in human tumor cell lines: HTB 161 (ovarian). The conditions noted are these: HTB 161 ovarian tumor, PROTOCOL 1 and PROTOCOL 2, 48 hours. The protocol: as §1, §2, §3, §4, §5, §6, §7, §8, §9, §10, §11, §12, §13, §14, §15, §16, §17

As to `CN(C)[C@@H]1C(O)=C(C(N)=O)C(=O)[C@@]2(O)C(O)=C3C(=O)c4c(cc(Cl)c(NC(=O)CN5CCCCC5)c4O)CC3CC12` (stereo partly drawn) [Example 10, 7S-(7α,10aα)]-N-[9-(Aminocarbonyl)-3-chloro-7-(dimethylamino)-5,5a,6,6a,7,10,10a,12-octahydro-1,8,10a,11-tetrahydroxy-10,12-dioxo-2-naphthacenyl]-1-piperidineacetamide dihydrochloride], the IC50 in the assay on A2780S came to 0.5 µg/mL; with A2780/DDP it was 0.6 µg/mL; with MIP it was 0.7 µg/mL; with HTB 161, 0.6 µg/mL.
With `CN(C)CC(=O)Nc1c(Cl)cc2c(c1O)C(=O)C1=C(O)[C@]3(O)C(=O)C(C(N)=O)=C(O)[C@@H](N(C)C)C3CC1C2` (stereo partly drawn) [Example 3, [4S-(45, 12aα)]-8-Chloro-4-(dimethylamino)-9[[(dimethylamino)acetyl]amino]-1,4,4a,5,5a,6,11,12a-octahydro-3,10,12,12a-tetrahydroxy-1,11-dioxo-2-naphthacenecarboxamide disulfate], the IC50 is 1.8 µg/mL in the assay with A2780S, 2.5 µg/mL with A2780/DDP, 2.2 µg/mL with MIP and 1 µg/mL with HTB 161.
Consider `CNCC(=O)Nc1c(Cl)cc2c(c1O)C(=O)C1=C(O)[C@]3(O)C(=O)C(C(N)=O)=C(O)[C@@H](N(C)C)C3CC1C2` (stereo partly drawn) [Example 7, [4S-(4α, 12aα)]-8-Chloro-4-(dimethylamino)-1,4,4a,5,5a,6,11,12a-octahydro-3,10,12,12a-tetrahydroxy-1,11-dioxo-9-[[(methylamino)acetyl]amino]-2-naphthacenecarboxamide dihydrochloride], for which the half-inhibitory concentration (IC50) amounted to 4.6 µg/mL with A2780S, 3.8 µg/mL in the assay with A2780/DDP, 8.5 µg/mL in the assay on MIP and 1.3 µg/mL in the assay with HTB 161.
As for `CN(C)[C@@H]1C(O)=C(C(N)=O)C(=O)[C@@]2(O)C(O)=C3C(=O)c4c(cc(Cl)c(NC(=O)CN5CCCC5)c4O)CC3CC12` (stereo partly drawn) [Example 9, [7S-(7α,10aα)]-N-[9-(Aminocarbonyl)-3-chloro-7-(dimethylamino)-5,5a,6,6a,7,10,10a,12-octahydro-1,8,10a,11-tetrahydroxy-10,12-dioxo-2-naphthacenyl]-1-pyrrolidineacetamide dihydrochloride], the IC50 stood at 1.3 µg/mL in the assay with A2780S, 1 µg/mL with A2780/DDP, 0.8 µg/mL with MIP and 1.9 µg/mL in the assay with HTB 161.
Regarding `CCCNCC(=O)Nc1c(Cl)cc2c(c1O)C(=O)C1=C(O)[C@]3(O)C(=O)C(C(N)=O)=C(O)[C@@H](N(C)C)C3CC1C2` (stereo partly drawn) [Example 5, [4S-(4α, 12aα)]-8-Chloro-4-(dimethylamino)-1,4,4a,5,5a, 6,11,12a-octahydro-3,10,12,12a-tetrahydroxy-1,11-dioxo-9-[[(propylamino)acetyl]amino]-2-naphthacenecarboxamide dihydrochloride], the IC50 with A2780S was 3 µg/mL; in the assay with A2780/DDP it was 3 µg/mL; in the assay on MIP, 10 µg/mL; in the assay with HTB 161 it was 4 µg/mL.
As to `CCCCNCC(=O)Nc1c(Cl)cc2c(c1O)C(=O)C1=C(O)[C@]3(O)C(=O)C(C(N)=O)=C(O)[C@@H](N(C)C)C3CC1C2` (stereo partly drawn) [Example 4, [4S-(4α, 12aα)]-9-[[(Butylamino)acetyl]amino]-8-chloro-4-(dimethylamino) -1,4,4a,5,5a,6,11,12a-octahydro-3,10,12,12a-tetrahydroxy-1,11-dioxo-2-naphthacenecarboxamide dihydrochloride], the IC50 in the assay on A2780S is 2.5 µg/mL; in the assay on A2780/DDP it was 2.8 µg/mL; in the assay with MIP it was 3.1 µg/mL; in the assay with HTB 161 it was 1.2 µg/mL.
Turning to `CN(C)c1c(Cl)cc(O)c2c1CC1CC3[C@H](N(C)C)C(O)=C(C(N)=O)C(=O)[C@@]3(O)C(O)=C1C2=O` (stereo partly drawn) [Example 11, [4S-(4α,12aα)]-8-Chloro-4,7-bis(dimethylamino)-1,4,4a,5,5a,6,11,12a-octahydro-3,10,12,12a-tetrahydroxy-1,11-dioxo-2-naphthacenecarboxamide sulfate], the IC50 in the assay with A2780S was 1.6 µg/mL; in the assay on A2780/DDP, 3.85 µg/mL; in the assay on MIP it was 2.6 µg/mL; in the assay with HTB 161, 0.7 µg/mL.
For the molecule `CCCCCNCC(=O)Nc1c(Cl)cc2c(c1O)C(=O)C1=C(O)[C@]3(O)C(=O)C(C(N)=O)=C(O)[C@@H](N(C)C)C3CC1C2` (stereo partly drawn) [Example 6, [4S-(4α, 12aα)]-8-Chloro-4-(dimethylamino)-1,4,4a,5,5a,6,11,12a-octahydro-3,10,12,12a-tetrahydroxy-1,11-dioxo-9-[[(pentylamino)acetyl]amino]-2-naphthacenecarboxamide dihydrochloride], the IC50 in the assay on A2780S came to 0.5 µg/mL; in the assay with A2780/DDP, 0.7 µg/mL; in the assay on MIP, 1.5 µg/mL; in the assay with HTB 161 it was 0.5 µg/mL.
Regarding `CN(C)[C@@H]1C(O)=C(C(N)=O)C(=O)[C@@]2(O)C(O)=C3C(=O)c4c(cc(Cl)c(NC(=O)CNCC5CC5)c4O)CC3CC12` (stereo partly drawn) [Example 8, [4S-(4α,12aα)]-8-Chloro-9-[[(cyclopropylmethylamino)-acetyl]amino]4-(dimethylamino)-1,4,4a,5,5a,6,11,12a-octahydro-3,10,12,12a-tetrahydroxy-1,11-dioxo-2-naphthacenecarboxamide dihydrochloride], the IC50 in the assay on A2780S was 2.2 µg/mL; in the assay with A2780/DDP it was 2.5 µg/mL; in the assay on MIP, 3.8 µg/mL; in the assay on HTB 161, 1 µg/mL.

Values taken from patent publication US5567693A, “Method for inhibiting angiogenesis, proliferation of endothelial or tumor cells and tumor growth” (American Cyanamid Company, priority 1994, dated 1996).
